In patent US12304932B2, “PACAP stabilized peptide” (SENJU PHARMACEUTICAL CO., LTD., priority 2017, dated 2025):
Square brackets hold non-standard residues; d marks the D form. Peptide text beside a SMILES is read from it. Ala(1H-tetrazol-5-yl) = N[C@@H](Cc1nnn[nH]1)C(=O)O

Tests used:
[1] = Peptide stability test 5: Tris buffer pH 7.0, stored at 60° C., HPLC conditions 3; type: physicochemical; settings: 100 μM peptide, Tris buffer pH 7.0, 60° C.
Experimental: Peptide 26 synthesized in Example 2 was weighed and dissolved in Tris buffer (pH 7.0) to prepare 1.0 mM peptide solutions. Each solution was filtered with a Chromatdisk (product of Merck Millipore, Millex-GV, 0.22 μm). The filtrate was diluted to 100 μM with Tris buffer (pH 7.0) and dispensed into a tube (Protein LoBind Tube by Eppendorf Co.). The prepared peptide solutions were incubated for one week or 2 weeks in a 60° C. thermostatic bath to obtain stored samples. A simultaneously prepared sample among the peptide solutions that was not stored was used as a standard sample (initial sample). The standard sample and the stored samples were stored at −30° C. until sample analysis.
The stored sample was measured under the following HPLC analysis conditions 3, and the survival rate alter correction for water for the peptide among the stored samples was calculated in the same manner as Example 3.
Column: XSelect CSH C18 by Waters Co., 5 μm, 4.6×250 mm
Guard column: XSelect CSH C18 by Waters Co., 5 4.6×20 mm Guard Cartridge
Detection wavelength: 220 nm
Mobile phase A: 0.1% formic acid in water
Mobile phase B: 0.1% formic acid in acetonitrile
Measuring time: 20 minutes
Measuring sample injection volume: 50 μL
Column temperature: 40° C.
Mobile phase delivery: The mixing ratio of mobile phase A and mobile phase B was varied as shown in Table 9 for linear concentration gradient control.

[2] = molecular target: T1, PAC1 receptor (PAC1R) (Homo sapiens, UniProt P41586); settings: background statement; cited from earlier work
T1 sequence (P41586 21-468): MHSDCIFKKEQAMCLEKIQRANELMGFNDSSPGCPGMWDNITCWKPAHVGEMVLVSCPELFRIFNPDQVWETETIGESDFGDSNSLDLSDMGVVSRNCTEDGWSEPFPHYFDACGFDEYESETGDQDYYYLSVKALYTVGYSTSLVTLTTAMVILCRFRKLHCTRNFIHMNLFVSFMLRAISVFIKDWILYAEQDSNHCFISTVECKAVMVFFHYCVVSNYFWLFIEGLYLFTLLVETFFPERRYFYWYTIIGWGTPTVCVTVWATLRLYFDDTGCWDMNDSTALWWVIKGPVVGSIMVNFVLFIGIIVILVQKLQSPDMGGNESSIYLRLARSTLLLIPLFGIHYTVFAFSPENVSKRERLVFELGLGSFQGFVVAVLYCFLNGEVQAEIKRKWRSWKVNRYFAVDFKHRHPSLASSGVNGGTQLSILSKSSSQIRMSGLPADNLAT

Compound	survival rate after correction for water, 60° C., 1-week storage ([1]; 1 week) [%]	survival rate after correction for water, 60° C., 2-week storage ([1]; 2 weeks) [%]	affinity of PAC1R for PACAP relative to its affinity for VIP [2]
CC[C@H](C)[C@H](NC(=O)CNC(=O)[C@H](Cc1nnn[nH]1)NC(=O)[C@H](CO)NC(=O)[C@H](Cc1c[nH]cn1)NC(C)=O)C(=O)N[C@@H](Cc1ccccc1)C(=O)N[C@H](C(=O)N[C@@H](Cc1nnn[nH]1)C(=O)N[C@@H](C)C(=O)N[C@@H](Cc1ccc(O)cc1)C(=O)N[C@@H](CO)C(=O)N[C@@H](CCCNC(=N)N)C(=O)N[C@@H](Cc1ccc(O)cc1)C(=O)N[C@@H](CCCNC(=N)N)C(=O)N[C@@H](CCCCN)C(=O)N[C@@H](C)C(=O)N[C@@H](CC(C)C)C(=O)N[C@@H](C)C(=O)N[C@H](C(=O)N[C@@H](CCCCN)C(=O)N[C@@H](CCCCN)C(=O)N[C@@H](Cc1ccc(O)cc1)C(=O)N[C@@H](CC(C)C)C(=O)N[C@@H](C)C(=O)N[C@@H](C)C(=O)N[C@H](C(=O)N[C@@H](CC(C)C)C(N)=O)C(C)C)C(C)C)[C@@H](C)O [Peptide 26] (Ac-HS[Ala(1H-tetrazol-5-yl)]GIFT[Ala(1H-tetrazol-5-yl)]AYSRYRKALAVKKYLAAVL-NH2)	98.0	94.8	
Pituitary adenylate cyclase-activating polypeptide [PACAP]			more than 1000 times
